Data reported in patent publication US5840684A, “Glycopeptide antibiotic derivatives” (Eli Lilly and Company, priority 1995, dated 1998).
Converted amounts (≈) assume the structure as drawn.

Columns and labels:
[1] = system: vancomycin-susceptible enterococci; test: broth micro-dilution, mean geometric MIC; assay type: cell-based, Enterococcus faecium and Enterococcus faecalis; conditions: enterococci, 24-hour incubation
Streptococcus pyogenes = test: mouse protection, experimentally-induced infection; assay type: in vivo; conditions: mice infected with Streptococcus pyogenes, two doses
Pediococcus acidilacti = test: agar dilution MIC, lactic acid bacteria; assay type: cell-based; conditions: Pediococcus acidilacti (mean of 10), brain-heart infusion agar
Entercoccus faecium 180 = test: broth micro-dilution MIC; assay type: cell-based; conditions: Entercoccus faecium 180
Procedure: (§1) The formula I compounds have in vitro and in vivo activity against Gram-positive pathogenic bacteria. The MIC's were determined using a standard broth micro-dilution assay.

[2] = system: Staphylococcus haemolyticus 415; test: broth micro-dilution MIC; assay type: cell-based
Procedure: as §1

[3] = system: Streptococcus pneumoniae P1; test: broth micro-dilution MIC; assay type: cell-based
Procedure: as §1

[4] = system: Enterococcus gallinarum 245; test: broth micro-dilution MIC; assay type: cell-based; conditions: Enterococcus gallinarum 245
Procedure: as §1

Entercoccus faecium 2041 = test: broth micro-dilution MIC; assay type: cell-based; conditions: Entercoccus faecium 2041
Procedure: as §1

[5] = system: Staphylococcus haemolyticus 105; test: broth micro-dilution MIC; assay type: cell-based
Procedure: as §1

Lactobacillus confusus = test: agar dilution MIC, lactic acid bacteria; assay type: cell-based; conditions: Lactobacillus confusus, brain-heart infusion agar
Stapylococcus aureus = test: mouse protection, experimentally-induced infection; assay type: in vivo; conditions: mice infected with Stapylococcus aureus, two doses
[6] = system: Leuconostoc mesenteroides; test: agar dilution MIC, lactic acid bacteria; assay type: cell-based; conditions: Leuconostoc mesenteroides (mean of 4), brain-heart infusion agar
Pediococcus pentosaceus = test: agar dilution MIC, lactic acid bacteria; assay type: cell-based; conditions: Pediococcus pentosaceus (mean of 2), brain-heart infusion agar
[7] = system: vancomycin-resistant enterococci; test: broth micro-dilution, mean geometric MIC; assay type: cell-based, Enterococcus faecium and Enterococcus faecalis; conditions: enterococci, 24-hour incubation
[8] = system: Staphylococcus aureus SA1199B; assay type: cell-based
Procedure: (§2) The MIC's were determined using a standard broth micro-dilution assay.

[9] = system: Staphylococcus aureus S13E; assay type: cell-based
Procedure: as §2

[10] = system: Staphylococcus aureus X400; test: broth micro-dilution MIC; assay type: cell-based
Procedure: as §2

[11] = system: Entercoccus faecium 180-1; test: broth micro-dilution MIC; assay type: cell-based
Procedure: as §2

Entercoccus faecium 276 = test: broth micro-dilution MIC; assay type: cell-based
Procedure: as §2

[12] = system: Staphylococcus aureus SA1199; test: broth micro-dilution MIC; assay type: cell-based
Procedure: as §2

[13] = system: Staphylococcus aureus X778; test: broth micro-dilution MIC; assay type: cell-based
Procedure: as §2

[14] = system: Streptococcus pyogenes C203; test: broth micro-dilution MIC; assay type: cell-based
Procedure: as §2

Leuconostoc lactis = test: agar dilution MIC, lactic acid bacteria; assay type: cell-based; conditions: Leuconostoc lactis (mean of 2), brain-heart infusion agar
Streptococcus pneumoniae = test: mouse protection, experimentally-induced infection; assay type: in vivo; conditions: mice infected with Streptococcus pneumoniae, two doses
[15] = system: Staphylococcus epidermidis 270; test: broth micro-dilution MIC; assay type: cell-based
Procedure: as §1

Leuconostoc citreum = test: agar dilution MIC, lactic acid bacteria; assay type: cell-based; conditions: brain-heart infusion agar
[16] = system: Staphylococcus aureus SA1199A; test: broth micro-dilution MIC; assay type: cell-based
Procedure: as §2

[17] = system: Staphylococcus aureus 489; test: broth micro-dilution MIC; assay type: cell-based
Procedure: as §2

[18] = system: Staphylococcus aureus 447; test: broth micro-dilution MIC; assay type: cell-based
Procedure: as §2

[19] = system: Staphylococcus aureus 446; test: broth micro-dilution MIC; assay type: cell-based
Procedure: as §2

[20] = system: Leuconostoc pseudomesenteroides; test: agar dilution MIC, lactic acid bacteria; assay type: cell-based; conditions: brain-heart infusion agar

| Compound | mean geometric MIC, Vancomycin Sensitive Strains [1] | ED50 (Streptococcus pyogenes) | MIC (Pediococcus acidilacti) | MIC (Entercoccus faecium 180) | MIC [2] | MIC [3] | MIC [4] | MIC (Entercoccus faecium 2041) | MIC [5] | ED50 (Stapylococcus aureus) | MIC [6] | mean geometric MIC, Vancomycin Resistant Strains [7] | MIC [8] | MIC [9] | MIC [10] | MIC [11] | MIC (Entercoccus faecium 276) | MIC [12] | MIC [13] | ED50 (Streptococcus pneumoniae) | other results |
| --- | --- | --- | --- | --- | --- | --- | --- | --- | --- | --- | --- | --- | --- | --- | --- | --- | --- | --- | --- | --- | --- |
| CNC(CC(C)C)C(=O)NC1C(=O)NC(CC(N)=O)C(=O)NC2C(=O)NC3C(=O)NC(C(=O)NC(C(=O)O)c4cc(O)cc(O)c4-c4cc3ccc4O)C(OC3CC(C)(N)C(O)C(C)O3)c3ccc(c(Cl)c3)Oc3cc2cc(c3OC2OC(CO)C(O)C(O)C2OC2CC(C)(NCc3cccc4c3oc3ccccc34)C(O)C(C)O2)Oc2ccc(cc2Cl)C1O (centres unmarked) [Compound 39] | 0.09 µg/mL | 0.045 mg/kg/2 | 26 µg/mL (≈ 14.7 µM) | 0.5 µg/mL (≈ 0.282 µM) | 4 µg/mL (≈ 2.26 µM) | ≤ 0.06 µg/mL | ≤ 0.06 µg/mL | ≤ 0.06 µg/mL | 2 µg/mL (≈ 1.13 µM) | 0.1 mg/kg/2 | 32 µg/mL (≈ 18.1 µM) | 1.2 µg/mL | ≤ 0.06 µg/mL | ≤ 0.06 µg/mL | ≤ 0.06 µg/mL | ≤ 0.06 µg/mL | ≤ 0.06 µg/mL | ≤ 0.06 µg/mL | ≤ 0.06 µg/mL | < 0.031 mg/kg/2 | MIC (Lactobacillus confusus): 32 µg/mL (≈ 18.1 µM); MIC (Pediococcus pentosaceus): 32 µg/mL (≈ 18.1 µM); MIC [14]: ≤ 0.06 µg/mL; MIC (Leuconostoc lactis): 32 µg/mL (≈ 18.1 µM) |
| CNC(CC(C)C)C(=O)NC1C(=O)NC(CC(N)=O)C(=O)NC2C(=O)NC3C(=O)NC(C(=O)NC(C(=O)O)c4cc(O)cc(O)c4-c4cc3ccc4O)C(OC3CC(C)(N)C(O)C(C)O3)c3ccc(c(Cl)c3)Oc3cc2cc(c3OC2OC(CO)C(O)C(O)C2OC2CC(C)(NCc3ccc(OCc4ccccc4)c(OC)c3)C(O)C(C)O2)Oc2ccc(cc2Cl)C1O (centres unmarked) [Compound 52] | 0.11 µg/mL | 0.046 mg/kg/2 | 55 µg/mL (≈ 30.2 µM) | 2 µg/mL (≈ 1.1 µM) | 1 µg/mL (≈ 0.55 µM) | ≤ 0.06 µg/mL | 1 µg/mL (≈ 0.55 µM) | 0.5 µg/mL (≈ 0.275 µM) | 0.5 µg/mL (≈ 0.275 µM) | 0.052 mg/kg/2 | 76 µg/mL (≈ 41.8 µM) | 0.59 µg/mL | 2 µg/mL (≈ 1.1 µM) | 0.5 µg/mL (≈ 0.275 µM) | ≤ 0.06 µg/mL | ≤ 0.06 µg/mL | 0.125 µg/mL (≈ 0.0687 µM) | 2 µg/mL (≈ 1.1 µM) | 0.5 µg/mL (≈ 0.275 µM) | 0.074 mg/kg/2 | MIC [15]: 0.5 µg/mL (≈ 0.275 µM); MIC (Leuconostoc citreum): > 128 µg/mL; MIC [16]: ≤ 0.06 µg/mL; MIC [17]: 0.5 µg/mL (≈ 0.275 µM); MIC [18]: ≤ 0.06 µg/mL; MIC [19]: ≤ 0.06 µg/mL; MIC [14]: ≤ 0.06 µg/mL |
| CNC(CC(C)C)C(=O)NC1C(=O)NC(CC(N)=O)C(=O)NC2C(=O)NC3C(=O)NC(C(=O)NC(C(=O)O)c4cc(O)cc(O)c4-c4cc3ccc4O)C(OC3CC(C)(N)C(O)C(C)O3)c3ccc(c(Cl)c3)Oc3cc2cc(c3OC2OC(CO)C(O)C(O)C2OC2CC(C)(NCc3cc(OCc4ccccc4)ccc3OC)C(O)C(C)O2)Oc2ccc(cc2Cl)C1O (centres unmarked) [Compound 51] | 0.22 µg/mL | 0.057 mg/kg/2 | 87 µg/mL (≈ 47.8 µM) | 0.5 µg/mL (≈ 0.275 µM) | 1 µg/mL (≈ 0.55 µM) | ≤ 0.06 µg/mL |  | ≤ 0.06 µg/mL | 0.5 µg/mL (≈ 0.275 µM) | 0.16 mg/kg/2 | 76 µg/mL (≈ 41.8 µM) | 0.84 µg/mL | 1 µg/mL (≈ 0.55 µM) | 0.5 µg/mL (≈ 0.275 µM) | ≤ 0.06 µg/mL | ≤ 0.06 µg/mL | ≤ 0.06 µg/mL | 0.5 µg/mL (≈ 0.275 µM) | 0.5 µg/mL (≈ 0.275 µM) | 0.036 mg/kg/2 | MIC [15]: 0.5 µg/mL (≈ 0.275 µM); MIC (Leuconostoc citreum): > 128 µg/mL; MIC (Pediococcus pentosaceus): 91 µg/mL (≈ 50 µM); MIC [16]: ≤ 0.06 µg/mL; MIC [17]: ≤ 0.06 µg/mL; MIC [18]: 0.5 µg/mL (≈ 0.275 µM); MIC [20]: > 128 µg/mL |
